The values below come from patent publication US20110275559A1, “Long-Acting Y2 and/or Y4 Receptor Agonists” (Novo Nordisk A/S, priority 2008, published 2011).

The data set in a line: in vivo. The settings on record: Göttingen, minipig, iv. The method, then: (§1) The mini-pigs had two central venous catheters inserted which were used for intra venous (i.v.) dosing and bloodsampling. Compound was dissolved in 50 mM K2HPO4, 0.05% tween 80, pH=8.0 to a concentration of 180 nmol/ml. The pigs were dosed with 6 nmol compound/kg body weight. […] The blood samples were collected into test tubes containing EDTA buffer for stabilization and kept on ice for max. 20 minutes before centrifugation. The centrifugation procedure to separate plasma was; 4° C., 3000 rpm for 10 minutes. Plasma were collected and immediately transferred to Micronic tubes stored at −20° C. until assayed.
An additional mini-pig PK assay was used for measuring PK of the compounds of the invention. […] The animals had two central venous catheters inserted which were used for intra venous (i.v.) dosing and blood sampling. Compounds were dissolved in 10 mM Na2HPO4, 150 mM NaCl, 0.01% tween 80, pH=4.0 to concentrations in the range of 40 nmol/ml to 200 nmol/ml. The mini-pigs were dosed i.v. with 10 nmol compound/kg body weight, occasionally other doses such as 4 nmol/kg, 30 nmol/kg or 50 nmol/kg were administered. Each compound was dosed to 3 or 4 mini-pigs, and two compounds may be given simultaneously to the same animal. Blood were sampled pre-dose and 12 times during the first 10 hours post-dose. Blood were furthermore sampled once daily until 13 days post dosing. The blood samples were collected into test tubes containing EDTA buffer, trasylol and Val-Pyr for stabilization and kept on ice for max. 20 minutes. Samples were centrifuged at 4° C., 2000G for 10 minutes to separate plasma. Plasma were collected and immediately transferred to Micronic tubes stored at −20° C. until assayed.
Plasma samples were analysed by LC-MS on an LTQ-Orbitrap (ThermoFisher Scientific, Bremen) to which Accela HPLC pumps and an autosampler were connected (both from ThermoFisher). […] HPLC was performed on a Jupiter Proteo column (4μ) 90A (50×2.0 mm ID). […] The flow rate was 0.3 ml/min. For analysis of plasma samples, 30 μl plasma was precipitated with 90 μl ethanol. […] The heptane phase was removed after 5 min and the remaining solution was analysed by LC-MS as described above. For construction of plasma standards, compound was spiked to plasma (minipig) at the following concentrations: 1 nM, 2 nM, 5 nM, 10 nM, 20 nM, 50 nM, 100 nM, 200 nM. The plasma standards were treated as the samples. The lower limit of quantification was estimated to 2 nM.
Non-compartmental analysis (NCA): Plasma concentration-time profiles were analyzed by non-compartmental pharmacokinetics analysis (NCA) using WinNonlin Professional 5.0 (Pharsight Inc., Mountain View, Calif., USA). NCA was performed using the individual plasma concentration-time profiles from each animal.
For determination of plasma concentration of the PYY and PP peptide derivative or analogues thereof the following Methods 1-4 were used.
as §1, with “bloodsampling. The compound” for “bloodsampling. Compound”, “to an appropriate” for “to a”, “concentration (e.g. 25-500 nmol/mL).” for “concentration of 180 nmol/ml.”, “dosed intravenously (i.v.) or subcutaneously (s.c.)” for “dosed”, “with between 1 and 30” for “with 6”, “buffer (with Aprotinin 15000 KIE/mL and Val-Pyr 0.30 mM)” for “buffer”
An additional mini-pig PK assay was used for measuring PK of the compounds of the invention. […] The animals had two central venous catheters inserted which were used for intra venous (i.v.) dosing and blood sampling.

*1 amine or outer side, *2 acyl side, *3 side chain or, on linkers, in order; H or OH if unused. Where a SMILES comes first, the peptide text is derived from it. Side-chain parts run from the residue outwards. The star is where a group is joined. C20 diacid = O=C(O)CCCCCCCCCCCCCCCCCCC(=O)*; C18 diacid = O=C(O)CCCCCCCCCCCCCCCCC(=O)*; γGlu = O=C(O)[C@H](CCC(=O)[*:2])N[*:1]; Trx = NC[C@H]1CC[C@H](C(=O)O)CC1; AEEA = NCCOCCOCC(=O)O

As for `CC[C@H](C)[C@H](NC(=O)[C@H](Cc1ccc(O)cc1)NC(=O)[C@H](CCCNC(=N)N)NC(=O)[C@H](CCCNC(=N)N)NC(=O)[C@H](CC(C)C)NC(=O)[C@H](CC(=O)O)NC(=O)[C@H](C)NC(=O)[C@H](C)NC(=O)[C@H](Cc1ccc(O)cc1)NC(=O)[C@H](CCC(N)=O)NC(=O)[C@H](C)NC(=O)[C@H](CC(C)C)NC(=O)[C@H](CCC(N)=O)NC(=O)[C@H](CCC(=O)O)NC(=O)[C@@H]1CCCN1C(=O)[C@@H](NC(=O)[C@H](C)NC(=O)[C@H](CC(N)=O)NC(=O)[C@H](CC(=O)O)NC(=O)CNC(=O)[C@@H]1CCCN1C(=O)[C@H](Cc1ccc(O)cc1)NC(=O)[C@@H](NC(=O)[C@@H]1CCCN1C(=O)[C@H](CCC(=O)O)NC(=O)[C@H](CC(C)C)NC(=O)[C@@H]1CCCN1)C(C)C)[C@@H](C)O)C(=O)N[C@@H](CC(N)=O)C(=O)N[C@@H](CC(C)C)C(=O)N[C@@H](CC(C)C)C(=O)N[C@H](C(=O)N[C@@H](CCCNC(=N)N)C(=O)N1CCC[C@H]1C(=O)N[C@@H](CCCCNC(=O)COCCOCCNC(=O)COCCOCCNC(=O)CC[C@H](NC(=O)CCCCCCCCCCCCCCCCC(=O)O)C(=O)O)C(=O)N[C@@H](Cc1ccc(O)cc1)C(N)=O)[C@@H](C)O` [SEQ ID NO: 47, N-epsilon35-[2-(2-{2-[2-(2-{2-[(S)-4-Carboxy-4-(17-carboxyheptadecanoylamino)butyrylamino]ethoxy}ethoxy)acetylamino]-ethoxy}ethoxy)acetyl][Leu17,Leu30,Lys35]hPP2-36] (H-PLEPVYPGDNATPEQLAQYAADLRRYINLLTRPK([AEEA-AEEA-γGlu-C18 diacid])Y-NH2), the half-life (usually how long it takes for the measured level to halve) (10 nmol/kg) is 4680 min. The compound `CC[C@H](C)[C@H](NC(=O)[C@H](Cc1ccc(O)cc1)NC(=O)[C@H](CCCNC(=N)N)NC(=O)[C@H](CCCCNC(=O)COCCOCCNC(=O)COCCOCCNC(=O)CC[C@H](NC(=O)[C@H]1CC[C@H](CNC(=O)CCCCCCCCCCCCCCCCCCC(=O)O)CC1)C(=O)O)NC(=O)[C@H](CC(C)C)NC(=O)[C@H](CC(=O)O)NC(=O)[C@H](C)NC(=O)[C@H](C)NC(=O)[C@H](Cc1ccc(O)cc1)NC(=O)[C@H](CCC(N)=O)NC(=O)[C@H](C)NC(=O)[C@H](CC(C)C)NC(=O)[C@H](CCC(N)=O)NC(=O)[C@H](CCC(=O)O)NC(=O)[C@@H]1CCCN1C(=O)[C@@H](NC(=O)[C@H](C)NC(=O)[C@H](CC(N)=O)NC(=O)[C@H](CC(=O)O)NC(=O)CNC(=O)[C@@H]1CCCN1C(=O)[C@H](Cc1ccc(O)cc1)NC(=O)[C@@H](NC(=O)[C@@H]1CCCN1C(=O)[C@H](CCC(=O)O)NC(=O)[C@H](CC(C)C)NC(=O)[C@@H]1CCCN1C(=O)[C@H](C)N)C(C)C)[C@@H](C)O)C(=O)N[C@@H](CC(N)=O)C(=O)N[C@@H](CC(C)C)C(=O)N[C@@H](CC(C)C)C(=O)N[C@H](C(=O)N[C@@H](CCCNC(=N)N)C(=O)N1CCC[C@H]1C(=O)N[C@@H](CCCNC(=N)N)C(=O)N[C@@H](Cc1ccc(O)cc1)C(N)=O)[C@@H](C)O` [SEQ ID NO: 71, N-epsilon25-[2-(2-{2-[2-(2-{2-[(S)-4-Carboxy-4-({trans-4-[(19-carboxynonadecanoylamino)methyl]cyclohexanecarbonyl}amino)butyrylamino]-ethoxy}ethoxy)acetylamino]ethoxy}ethoxy)acetyl][Leu17,Lys25,Leu30]hPP1-36] (H-APLEPVYPGDNATPEQLAQYAADLK([AEEA-AEEA-γGlu-Trx-C20 diacid])RYINLLTRPRY-NH2) gave a half-life (in vivo, 13 nmol/kg) of 780 min.
